In ChEMBL document CHEMBL3882725, “Indazole derivatives as JNK inhibitors and compositions and methods related thereto” (2002):

Target: Mitogen-activated protein kinase 9 (Homo sapiens, UniProt P45984)
Test: Inhibition of His6-tagged JNK2 (unknown origin) assessed as reduction in c-Jun phosphorylation using GST-c-Jun (1 to 79 residues) and [gamma32P]ATP incubated for 1 hr by scintillation counting assay

Mitogen-activated protein kinase 9, sequence (P45984 whole entry, the tested form may be a part): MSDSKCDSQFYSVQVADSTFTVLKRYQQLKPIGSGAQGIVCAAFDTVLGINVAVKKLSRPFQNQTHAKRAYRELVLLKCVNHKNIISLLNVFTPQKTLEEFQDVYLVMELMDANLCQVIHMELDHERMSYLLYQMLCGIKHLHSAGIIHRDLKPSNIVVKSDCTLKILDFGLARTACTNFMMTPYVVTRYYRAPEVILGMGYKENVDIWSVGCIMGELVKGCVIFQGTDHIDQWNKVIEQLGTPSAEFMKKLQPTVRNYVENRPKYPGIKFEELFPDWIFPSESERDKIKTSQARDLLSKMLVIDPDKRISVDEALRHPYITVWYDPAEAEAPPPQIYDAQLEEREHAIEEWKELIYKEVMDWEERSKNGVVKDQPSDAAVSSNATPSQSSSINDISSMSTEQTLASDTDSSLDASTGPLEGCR

| SMILES | IC50 [µM] |
| --- | --- |
| c1cc2[nH]nc(-c3ccc4c(c3)OCCO4)c2cc1-c1n[nH]c(CN2CCCC2)n1 | 1 to 10 |
| COc1ccc2cc(-c3n[nH]c4ccc(-c5n[nH]c(CN(C)C)n5)cc34)ccc2c1 | 1 to 10 |
| COc1ccc2cc(-c3n[nH]c4ccc(-c5nc[nH]n5)cc34)ccc2c1 | 1 to 10 |
| c1ccc2ncc(-c3n[nH]c4ccc(-c5nc[nH]n5)cc34)cc2c1 | 1 to 10 |
| O=C(Nc1ccccc1)c1cccc(-c2n[nH]c3ccc(-c4n[nH]c(CN5CCCC5)n4)cc23)c1 | 0.5 to 10 |
| COc1ccc(C(=O)Nc2cccc(-c3n[nH]c4ccc(-c5nc[nH]n5)cc34)c2)cc1 | 0.5 to 10 |
| Cc1ccc(C(=O)Nc2cccc(-c3n[nH]c4ccc(-c5nc[nH]n5)cc34)c2)cc1 | 1 to 10 |
| O=C(Nc1cccc(-c2n[nH]c3ccc(-c4nc[nH]n4)cc23)c1)c1ccccc1 | 0.5 to 10 |
| O=C(Nc1cccc(-c2n[nH]c3ccc(-c4nc[nH]n4)cc23)c1)c1ccc(Cl)cc1Cl | 1 to 10 |
| CN1CCN(CC(=O)Nc2cccc(-c3n[nH]c4ccc(-c5nc[nH]n5)cc34)c2)CC1 | 1 to 10 |
| Fc1ccc(-c2n[nH]c3ccc(-c4n[nH]c(CN5CCCC5)n4)cc23)cc1 | 0.5 to 10 |
| COc1ccc2cc(-c3n[nH]c4ccc(-c5n[nH]c(CN6CCCC6)n5)cc34)ccc2c1 | 0.5 to 10 |
| O=C(CN1CCOCC1)Nc1cccc(-c2n[nH]c3ccc(-c4nc[nH]n4)cc23)c1 | 0.5 to 10 |
| CC(C)CC(=O)Nc1cccc(-c2n[nH]c3ccc(-c4nc[nH]n4)cc23)c1 | 0.5 to 10 |
| CC(C)C(=O)Nc1cccc(-c2n[nH]c3ccc(-c4nc[nH]n4)cc23)c1 | 0.5 to 10 |
| NC(=O)c1ccc2[nH]nc(-c3ccc4c(c3)CCO4)c2c1 | 1 to 10 |
| c1nc(-c2ccc3[nH]nc(-c4ccc5c(c4)CCO5)c3c2)n[nH]1 | 1 to 10 |
| O=C(Nc1cccc(-c2n[nH]c3ccc(-c4nc[nH]n4)cc23)c1)c1ccc(Cl)cc1 | 1 to 10 |
| CC(O)Cc1nnc(-c2ccc3[nH]nc(-c4ccc(F)cc4)c3c2)[nH]1 (stereo in doubt; form 1) | 0.5 to 10 |
| CC(O)Cc1nnc(-c2ccc3[nH]nc(-c4ccc(F)cc4)c3c2)[nH]1 (stereo in doubt; form 2) | 1 to 10 |
| c1cc(OCCN2CCCCC2)cc(-c2n[nH]c3ccc(-c4nc[nH]n4)cc23)c1 [CC-401] | 1 to 10 |
